{"source": "patent US9566342B2", "about": "“Compounds for treatment of heart failure” (SOLVOTRIN INNOVATIONS LIMITED, priority 2010, dated 2017)", "key": {"human colon cancer cells": {"tested_on": "human colon cancer cells", "test": "Colon cancer cell invasiveness, in vitro model", "format": "cell-based", "details": "low dose, FIG. 10"}, "MMP-8": {"biological_target": "MMP-8 (Homo sapiens, UniProt P22894)", "sequence (P22894 101-467, species assumed)": "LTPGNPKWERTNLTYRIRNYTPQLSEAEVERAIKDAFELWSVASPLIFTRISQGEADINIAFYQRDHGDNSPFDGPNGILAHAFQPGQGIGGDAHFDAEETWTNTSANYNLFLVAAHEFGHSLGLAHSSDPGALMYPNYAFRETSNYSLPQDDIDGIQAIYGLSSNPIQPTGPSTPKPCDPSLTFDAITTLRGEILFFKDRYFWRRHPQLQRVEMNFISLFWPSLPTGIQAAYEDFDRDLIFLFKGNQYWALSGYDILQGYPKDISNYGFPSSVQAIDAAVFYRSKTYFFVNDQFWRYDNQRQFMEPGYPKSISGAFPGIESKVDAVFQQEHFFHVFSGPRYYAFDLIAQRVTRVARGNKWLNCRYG", "test": "Direct enzyme inhibition, MMP-8", "format": "biochemical"}, "MMP-9 [1]": {"tested_on": "MMP-9", "test": "Total MMP-9 levels on repeated oral administration in non-human primates", "format": "in vivo, cynomolgus monkeys"}, "MMP-2 [2]": {"biological_target": "T1, MMP-2 (Homo sapiens, UniProt P08253)", "T1 sequence (P08253 110-660)": "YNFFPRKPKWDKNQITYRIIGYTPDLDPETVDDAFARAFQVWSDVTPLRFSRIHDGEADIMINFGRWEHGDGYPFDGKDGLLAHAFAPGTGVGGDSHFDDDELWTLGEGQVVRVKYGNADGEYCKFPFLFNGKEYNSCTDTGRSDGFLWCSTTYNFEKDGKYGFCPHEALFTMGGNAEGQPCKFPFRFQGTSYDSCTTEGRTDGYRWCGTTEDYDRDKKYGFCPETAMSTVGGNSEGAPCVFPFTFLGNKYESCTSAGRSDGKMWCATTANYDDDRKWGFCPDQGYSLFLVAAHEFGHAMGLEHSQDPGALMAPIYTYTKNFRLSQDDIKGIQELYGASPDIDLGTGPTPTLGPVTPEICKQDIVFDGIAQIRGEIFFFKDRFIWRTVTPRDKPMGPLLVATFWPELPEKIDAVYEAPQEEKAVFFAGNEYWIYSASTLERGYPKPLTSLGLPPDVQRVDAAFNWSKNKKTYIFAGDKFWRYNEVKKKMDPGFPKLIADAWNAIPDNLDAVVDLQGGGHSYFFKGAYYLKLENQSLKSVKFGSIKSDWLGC", "test": "Model of direct enzyme inhibition, MMP-2 (IC50)", "format": "biochemical"}, "MMP-9 [3]": {"biological_target": "T2, MMP-9 (Homo sapiens, UniProt P14780)", "T2 sequence (P14780 94-707)": "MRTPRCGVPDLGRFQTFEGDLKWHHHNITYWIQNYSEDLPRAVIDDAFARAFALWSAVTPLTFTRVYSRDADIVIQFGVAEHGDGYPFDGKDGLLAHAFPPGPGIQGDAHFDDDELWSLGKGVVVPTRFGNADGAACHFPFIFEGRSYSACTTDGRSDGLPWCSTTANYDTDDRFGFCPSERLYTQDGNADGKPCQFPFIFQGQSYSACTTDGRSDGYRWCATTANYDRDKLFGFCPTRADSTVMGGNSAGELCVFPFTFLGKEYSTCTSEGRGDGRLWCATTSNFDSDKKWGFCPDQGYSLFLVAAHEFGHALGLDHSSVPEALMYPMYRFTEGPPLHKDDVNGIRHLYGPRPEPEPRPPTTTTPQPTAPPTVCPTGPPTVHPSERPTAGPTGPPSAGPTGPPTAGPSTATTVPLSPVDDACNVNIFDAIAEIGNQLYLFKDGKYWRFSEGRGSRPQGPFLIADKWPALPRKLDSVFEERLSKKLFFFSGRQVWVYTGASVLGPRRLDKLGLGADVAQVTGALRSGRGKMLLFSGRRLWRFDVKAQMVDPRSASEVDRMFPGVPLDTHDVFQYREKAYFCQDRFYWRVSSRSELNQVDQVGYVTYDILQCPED", "test": "Model of direct enzyme inhibition, MMP-9 (IC50)", "format": "biochemical"}, "MMP-1": {"biological_target": "T3, MMP-1 (Homo sapiens, UniProt P03956)", "T3 sequence (P03956 100-469)": "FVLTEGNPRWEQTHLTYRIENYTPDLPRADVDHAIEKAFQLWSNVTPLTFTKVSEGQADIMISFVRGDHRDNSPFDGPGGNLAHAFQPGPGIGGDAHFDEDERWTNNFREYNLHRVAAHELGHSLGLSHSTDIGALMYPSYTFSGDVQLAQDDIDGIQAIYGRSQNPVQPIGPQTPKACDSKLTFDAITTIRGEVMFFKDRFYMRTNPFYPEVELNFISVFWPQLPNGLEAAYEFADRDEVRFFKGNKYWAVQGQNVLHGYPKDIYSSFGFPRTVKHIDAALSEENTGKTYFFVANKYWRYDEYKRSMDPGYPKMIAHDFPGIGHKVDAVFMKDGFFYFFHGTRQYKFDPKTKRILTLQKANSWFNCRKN", "test": "Direct enzyme inhibition, MMP-1", "format": "biochemical"}, "MMP-13": {"biological_target": "MMP-13 (Homo sapiens, UniProt P45452)", "test": "Direct enzyme inhibition, MMP-13", "format": "biochemical"}, "MMP-2 [4]": {"tested_on": "MMP-2", "test": "PMA stimulated breast cancer cell model (HT1080 cells), pro-MMP-2 / MMP-2", "format": "cell-based"}, "MMP-9 [5]": {"tested_on": "MMP-9", "test": "PMA-stimulated CaCo2 cells, zymography of media, MMP-9", "format": "cell-based", "details": "CaCo2 cells, PMA, 150 uM"}, "MMP-9 mRNA": {"tested_on": "MMP-9 mRNA", "test": "TNFα treated human cardiac fibroblasts, MMP-9 transcription (QPCR)", "format": "cell-based", "details": "HCF"}, "MMP-2 [6]": {"biological_target": "T1, MMP-2", "test": "Direct inhibition of recombinant MMP-2, fluorogenic substrate", "format": "biochemical", "set-up": "purchased R&D Systems, Ireland", "details": "100 μM; read-out: inhibition of recombinant human MMP-2"}, "[7]": {"test": "Blood pressure in non-human primates", "details": "cynomolgus monkeys, over dosing period"}, "[8]": {"tested_on": "Human Peripheral Blood mononuclear cells (PBMC) stimulated with TNF-α", "test": "MMPs, TIMP-1 and inflammatory markers in supernatants of PBMC stimulated with TNF-α", "format": "cell-based"}, "MMP-2 mRNA": {"tested_on": "MMP-2 mRNA", "test": "TNFα treated human cardiac fibroblasts, MMP-2 transcription (QPCR)", "format": "cell-based", "details": "HCF, 10 ng/mL TNFα 72 hours, 75 or 150 μM"}, "MMP-9 [9]": {"biological_target": "T2, MMP-9", "test": "Direct inhibition of recombinant MMP-9, fluorogenic substrate", "format": "biochemical", "set-up": "purchased R&D Systems, Ireland", "details": "100 μM; read-out: inhibition of recombinant human MMP-9"}, "[10]": {"details": "cancer patients, Phase I, cited from earlier work"}, "MMP-2 [11]": {"tested_on": "MMP-2", "test": "PMA-stimulated CaCo2 cells, zymography of media, MMP-2", "format": "cell-based", "details": "150 uM"}, "[12]": {"test": "Plasma doxycycline and nitrite/nitrate (NOx) in non-human primates", "format": "in vivo, cynomolgus monkeys", "details": "cynomolgus monkey, po, 4.8 mg/kg doxycycline hyclate, day 3 of dosing, base equivalents, read-out: Maximum plasma doxycycline concentration (Cmax)"}, "MMP-9 [13]": {"tested_on": "MMP-9", "test": "PMA stimulated fibrosarcoma cell model (HT1080 cells), MMP-9", "format": "cell-based", "details": "100 micromolar"}, "[14]": {"details": "75 μM, 24 hours, TNFα, mean ± SEM"}, "[15]": {"details": "150 μM, 24 hours, TNFα, mean ± SEM"}}, "note": "Values joined by “and” are separate entries in the source; they are usually repeats but may differ in a detail not shown here. Equal entries are not always repeated. Where two headings read alike, the source gives them in different places."}
{"molecule": "Amido-N-[3-(Nitrooxymethyl)Piperidinomethyl]-α-6-Deoxy-5-Oxytetracycline [SI1005]", "values": [{"measurement": "colon cancer cell invasiveness", "setting": "human colon cancer cells", "value": "more effective in reducing tumour cell invasiveness"}, {"measurement": "MMP-8 inhibition", "setting": "MMP-8; 10 μM", "value": "~16.9", "unit": "%"}, {"measurement": "MMP-8 inhibition", "setting": "MMP-8; 100 μM", "value": "around 53.8%"}, {"measurement": "change in MMP-9 from baseline to 72 hours", "setting": "MMP-9 [1]; cynomolgus monkey, in vivo, po", "value": "significantly reduced compared to doxycycline and SI1004"}, {"measurement": "IC50", "setting": "MMP-2 [2]", "value": 63, "unit": "µM"}, {"measurement": "IC50", "setting": "MMP-9 [3]", "value": 139, "unit": "µM"}, {"measurement": "MMP-1 inhibition", "setting": "MMP-1; 10 μM", "value": "~13", "unit": "%"}, {"measurement": "MMP-1 inhibition", "setting": "MMP-1; 100 μM", "value": "around 22%"}, {"measurement": "MMP-13 inhibition", "setting": "MMP-13; 10 μM", "value": "~6.6", "unit": "%"}, {"measurement": "MMP-13 inhibition", "setting": "MMP-13; 100 μM", "value": "around 28.4%"}, {"measurement": "conversion of pro-MMP-2 to active MMP-2 (activation of MMP-2)", "setting": "MMP-2 [4]", "value": "do not appear to activate MMP-2"}]}
{"molecule": "C[C@H]1c2cccc(O)c2C(=O)C2=C(O)[C@]3(O)C(=O)C(C(N)=O)=C(O)[C@@H](N(C)C)[C@@H]3[C@@H](O)[C@@H]21", "note": "[Doxycycline, (4S,4aR,5S,5aR,6R,12aS)-4-(dimethylamino)-3,5,10,12,12a-pentahydroxy-6-methyl-1,11-dioxo-1,4,4a,5,5a,6,11,12a-octahydrotetracene-2-carboxamide, reference compound]", "values": [{"measurement": "suppression of MMP-9 activity relative to PMA positive control", "setting": "MMP-9 [5]", "value": "did not affect MMP-9 levels"}, {"measurement": "colon cancer cell invasiveness", "setting": "human colon cancer cells", "value": "does not reduce colon cancer cell invasiveness"}, {"measurement": "inhibition at 100 µM", "setting": "MMP-8; 100 μM", "value": "~42.7", "unit": "%"}, {"measurement": "MMP-9 protein levels in treated cell supernatants", "setting": "MMP-9 mRNA", "value": "below the lower limit of quantification"}, {"measurement": "TNFα induced upregulation of MMP-9 mRNA", "setting": "MMP-9 mRNA; 10 ng/mL TNFα 72 hours, 75 or 150 μM", "value": "In contrast to doxycycline hyclate, SI1004 significantly inhibited"}, {"measurement": "inhibition at 100 µM", "setting": "MMP-2 [6]", "value": "34 ± 3.5", "unit": "%"}, {"measurement": "diastolic blood pressure", "setting": "[7]", "value": "58.6±6.0", "unit": "mmHg"}, {"measurement": "mean systolic blood pressure", "setting": "[7]", "value": "109.7±7.1", "unit": "mmHg"}, {"measurement": "total plasma MMP-9, median AUC", "setting": "MMP-9 [1]; NHPs, daily orogastric gavage for 72 hours, n=6", "value": 8.7, "unit": "µg·h/mL"}, {"measurement": "change in MMP-9 from baseline to 72 hours", "setting": "MMP-9 [1]; cynomolgus monkeys, oral gavage once daily for three days, n=6 per group", "value": "MMP-9 levels increase"}, {"measurement": "Interleukin-1β protein level in PBMC supernatant", "setting": "[8]; [14]", "value": "34.6 ± 5.8", "unit": "ng/mL"}, {"measurement": "Interleukin-4 protein level in PBMC supernatant", "setting": "[8]; [14]", "value": "9.4 ± 1.2", "unit": "ng/mL"}, {"measurement": "Interleukin-5 protein level in PBMC supernatant", "setting": "[8]; [14]", "value": "40.8 ± 9.0", "unit": "ng/mL"}, {"measurement": "Interleukin-8 protein level in PBMC supernatant", "setting": "[8]; [14]", "value": "8852 ± 2568", "unit": "ng/mL"}, {"measurement": "Interleukin-10 protein level in PBMC supernatant", "setting": "[8]; [14]", "value": "136.6 ± 74.2", "unit": "ng/mL"}, {"measurement": "Interleukin-13 protein level in PBMC supernatant", "setting": "[8]; [14]", "value": "79.6 ± 17.2", "unit": "ng/mL"}, {"measurement": "MMP-1 protein level in PBMC supernatant", "setting": "[8]; [14]", "value": "144.0 ± 80.0", "unit": "ng/mL"}, {"measurement": "MMP-2 protein level in PBMC supernatant", "setting": "[8]; [14]", "value": "61.4 ± 54.2", "unit": "ng/mL"}, {"measurement": "MMP-10 protein level in PBMC supernatant", "setting": "[8]; [14]", "value": "36.0 ± 14.0", "unit": "ng/mL"}, {"measurement": "Interleukin-1β protein level in PBMC supernatant", "setting": "[8]; [15]", "value": "30.6 ± 5.0", "unit": "ng/mL"}, {"measurement": "Interleukin-4 protein level in PBMC supernatant", "setting": "[8]; [15]", "value": "9.8 ± 0.8", "unit": "ng/mL"}, {"measurement": "Interleukin-5 protein level in PBMC supernatant", "setting": "[8]; [15]", "value": "31.2 ± 5.8", "unit": "ng/mL"}, {"measurement": "Interleukin-10 protein level in PBMC supernatant", "setting": "[8]; [15]", "value": "92.2 ± 33.8", "unit": "ng/mL"}, {"measurement": "Interleukin-13 protein level in PBMC supernatant", "setting": "[8]; [15]", "value": "80.2 ± 3.2", "unit": "ng/mL"}, {"measurement": "MMP-1 protein level in PBMC supernatant", "setting": "[8]; [15]", "value": "134 ± 48", "unit": "ng/mL"}, {"measurement": "MMP-2 protein level in PBMC supernatant", "setting": "[8]; [15]", "value": "96.8 ± 80.6", "unit": "ng/mL"}, {"measurement": "MMP-10 protein level in PBMC supernatant", "setting": "[8]; [15]", "value": "47.6 ± 15.8", "unit": "ng/mL"}, {"measurement": "IL-8 levels in TNFalpha stimulated PBMCs (admixture study, FIG. 14)", "setting": "[8]; 150 micromolar", "value": "also reduce IL-8 levels compared to controls"}, {"measurement": "MMP-2 mRNA expression", "setting": "MMP-2 mRNA", "value": "no significant effects"}, {"measurement": "IC50", "setting": "MMP-2 [2]", "value": "~129 µM and 129 µM"}, {"measurement": "inhibition at 100 µM", "setting": "MMP-9 [9]", "value": "33.3 ± 3.5", "unit": "%"}, {"measurement": "IC50", "setting": "MMP-9 [3]", "value": "~164 µM and 164 µM"}, {"measurement": "inhibition at 100 µM", "setting": "MMP-1; 100 μM", "value": "~12", "unit": "%"}, {"measurement": "oral dose resulting in dose-limiting toxicity (fatigue, confusion, nausea, vomiting)", "setting": "[10]", "value": "400 mg administered twice a day"}, {"measurement": "maximum tolerated dose", "setting": "[10]; oral", "value": 300, "unit": "mg twice a day"}, {"measurement": "inhibition at 100 µM", "setting": "MMP-13; 100 μM", "value": "~54", "unit": "%"}, {"measurement": "inhibition of MMP-2 activity relative to PMA positive control", "setting": "MMP-2 [11]", "value": 80, "unit": "%"}, {"measurement": "conversion of pro-MMP-2 to active MMP-2 (activation of MMP-2)", "setting": "MMP-2 [4]; HT1080 cells, PMA, 100 μM", "value": "increase the conversion of available pro-MMP-2 to active MMP-2"}, {"measurement": "pro-MMP-2 production", "setting": "MMP-2 [4]; HT1080 cells, PMA, 100 micromolar", "value": "reduce pro-MMP-2 production"}, {"measurement": "Cmax", "setting": "[12]", "value": 5.1, "unit": "µM"}, {"measurement": "MMP-9 production", "setting": "MMP-9 [13]", "value": "reduce MMP-9 production"}]}
